In patent publication US10130633B2, “Compounds” (BAYER PHARMA AKTIENGESELLSCHAFT, priority 2013, dated 2018):

Legend:
[1] = tested on: HCT116 FOP control reporter cell line; test: HCT116 FOPFlash control reporter assay (FOP control vector, non-functional TCF elements); type: cell-based; settings: HCT116 FOP control reporter cells, 36 hours incubation, luciferase expression
Description: In a parallel approach, HCT116 cells were cotransfected with the FOP control vector and pcDNA3. The FOP vector is identical to the TOP construct, but it contains instead of functional TCF elements a randomized, non-functional sequence. For this transfection a stable transfected cell line was generated as well.

[2] = tested on: constitutive active colorectal cancer cell (CRC) Wnt pathway; test: HCT116 TOPFlash cellular reporter assay (Super TopFlash luciferase), constitutive active Wnt pathway; type: cell-based; settings: HCT116 TOP reporter cells, 36 hours incubation, luciferase expression
Description: In order to discover and characterize small molecules which inhibit the constitutive active colorectal cancer cell (CRC) Wnt pathway, a cellular reporter assay was employed. […] Stable transfectants were generated by cotransfection with pcDNA3 and selection of stable transfected cells with 1 mg/ml G418.

Row | SMILES | IC50 ([1]; Homo sapiens, HCT-116, 36 h) [µM] | IC50 ([2]; Homo sapiens, HCT-116, 36 h) [µM] | IC50 [2] [µM] | IC50 [1] [µM]
1 | CC(C(=O)Nc1cc(C(=O)Nc2ccc(-c3ccccc3F)nc2)ccc1C(F)(F)F)N1CCOCC1 (centres unmarked) [Example 207, N-[6-(2-fluorophenyl)pyridin-3-yl]-3-{[2-(morpholin-4-yl)propanoyl]amino}-4-(trifluoromethyl)benzamide] | – | – | 0.153 | 8.55
2 | O=C(CN1CCN(C2CC2)CC1)Nc1cc(C(=O)Nc2nnc(-c3ccccc3)s2)ccc1OCC1CC1 [Example 265, 4-(cyclopropylmethoxy)-3-{[(4-cyclopropylpiperazin-1-yl)acetyl]amino}-N-(5-phenyl-1,3,4-thiadiazol-2-yl)benzamide] | ≥ 50 | 0.32 | – | –
3 | CC(C(=O)Nc1cc(C(=O)Nc2ccc(-c3ccc(C(F)F)cc3)nc2)ccc1OC(F)(F)F)N1CCOCC1 (centres unmarked) [Example 112, N-{6-[4-(difluoromethyl)phenyl]pyridin-3-yl}-3-{[2-(morpholin-4-yl)propanoyl]amino}-4-(trifluoromethoxy)benzamide] | ≥ 50 | 0.27 | – | –
4 | CC(C(=O)Nc1cc(NC(=O)c2ccc(-c3cc(F)cc(F)c3)nc2)ccc1OC(F)(F)F)N1CC2CCC(C1)O2 (centres unmarked) [Example 202, 6-(3,5-difluorophenyl)-N-[3-{[2-(8-oxa-3-azabicyclo[3.2.1]oct-3-yl)propanoyl]amino}-4-(trifluoromethoxy)phenyl] nicotinamide] | – | – | 0.2 | 5.8
5 | O=C(Cc1ccccn1)Nc1cc(C(=O)Nc2ccc(-c3ccccc3F)nc2)ccc1OC1CC1 [Example 238, 4-(cyclopropyloxy)-N-[6-(2-fluorophenyl)pyridin-3-yl]-3-[(pyridin-2-ylacetyl)amino]benzamide] | ≥ 50 | 1.75 | – | –
6 | O=C(Nc1ccc(OC(F)(F)F)c(NC(=O)C2(N3CCOCC3)CC2)c1)c1cnc(-c2ccccc2)s1 [Example 108, N-[3-({[1-(morpholin-4-yl)cyclopropyl]carbonyl}amino)-4-(trifluoromethoxy)phenyl]-2-phenyl-1,3-thiazole-5-carboxamide] | ≥ 50 | 0.463 | – | –
7 | CC(C(=O)Nc1cc(C(=O)Nc2ccc(-c3ccccc3F)nc2)ccc1OC(F)(F)F)N1CCN(C2CC2)CC1 (centres unmarked) [Example 250, 3-{[2-(4-cyclopropylpiperazin-1-yl)propanoyl]amino}-N-[6-(2-fluorophenyl)pyridin-3-yl]-4-(trifluoromethoxy)benzamide] | – | – | 0.192 | 31
8 | Cc1ccccc1-c1nnc(NC(=O)c2ccc(OC(F)(F)F)c(NC(=O)C3(N4CCOCC4)CC3)c2)s1 [Example 257, N-[5-(2-methylphenyl)-1,3,4-thiadiazol-2-yl]-3-({[1-(morpholin-4-yl)cyclopropyl]carbonyl}amino)-4-(trifluoromethoxy)benzamide] | ≥ 50 | 0.017 | – | –
9 | C[C@@H]1CN(CC(=O)Nc2cc(C(=O)Nc3ccc(-c4ccccc4F)nc3)ccc2OC(F)(F)F)CCN1C [Example 164, 3-({[(3R)-3,4-dimethylpiperazin-1-yl]acetyl}amino)-N-[6-(2-fluorophenyl)pyridin-3-yl]-4-(trifluoromethoxy)benzamide] | ≥ 50 | 0.22 | – | –
10 | O=C(Nc1nnc(-c2ccccc2)s1)c1ccc(OCc2ccccc2)c(NC(=O)C2(N3CCOCC3)CC2)c1 [Example 92, 4-(benzyloxy)-3-({[1-(morpholin-4-yl)cyclopropyl]carbonyl}amino)-N-(5-phenyl-1,3,4-thiadiazol-2-yl)benzamide] | ≥ 50 | 0.36 | – | –
11 | CC(C(=O)Nc1cc(NC(=O)c2ccc(-c3cc(F)cc(F)c3)nc2)ccc1OC(F)(F)F)N1CCOCC1 (centres unmarked) [Example 219, 6-(3,5-difluorophenyl)-N-[3-{[2-(morpholin-4-yl)propanoyl]amino}-4-(trifluoromethoxy)phenyl] nicotinamide] | – | – | 0.245 | ≥ 50
12 | Cc1cccc(-c2nnc(NC(=O)c3ccc(OC(F)(F)F)c(NC(=O)CN4CCOCC4)c3)s2)c1 [Example 96, N-[5-(3-methylphenyl)-1,3,4-thiadiazol-2-yl]-3-[(morpholin-4-ylacetyl)amino]-4-(trifluoromethoxy)benzamide] | ≥ 50 | 0.855 | – | –
13 | CS(=O)(=O)Cc1ccc(C(=O)Nc2nnc(-c3ccccc3)s2)cc1NC(=O)CN1CCOCC1 [Example 235, 4-[(methylsulfonyl)methyl]-3-[(morpholin-4-ylacetyl)amino]-N-(5-phenyl-1,3,4-thiadiazol-2-yl)benzamide] | ≥ 50 | 1.31 | – | –
14 | COc1ccc(C(=O)Nc2ccc(-c3ccccc3F)nc2)cc1NC(=O)CN1C[C@@H]2C[C@H]1CO2 [Example 3, N-[6-(2-fluorophenyl)pyridin-3-yl]-4-methoxy-3-{[(1S,4S)-2-oxa-5-azabicyclo[2.2.1]hept-5-ylacetyl]amino}benzamide] | ≥ 50 | 1.8 | – | –
15 | Cc1cccc(-c2nnc(NC(=O)c3ccc(OC(F)(F)F)c(NC(=O)CN4CCN(C)CC4)c3)s2)c1 [Example 145, N-[5-(3-methylphenyl)-1,3,4-thiadiazol-2-yl]-3-{[(4-methylpiperazin-1-yl)acetyl]amino}-4-(trifluoromethoxy)benzamide] | ≥ 50 | 0.152 | – | –

Further lines, results first:

Row | IC50 ([1]; Homo sapiens, HCT-116, 36 h) [µM] | IC50 ([2]; Homo sapiens, HCT-116, 36 h) [µM] | IC50 [2] [µM] | IC50 [1] [µM] | SMILES
16 | 9.9 | 0.444 | – | – | CC(C)(C)c1ccc(NC(=O)c2ccc(-c3ccccc3)nc2)cc1NC(=O)CN1CCOCC1 [Example 18, N-{4-tert-butyl-3-[(morpholin-4-ylacetyl)amino]phenyl}-6-phenylnicotinamide]
17 | 29.9 | 0.208 | – | – | CC(C(=O)Nc1cc(C(=O)Nc2ccc(-c3ccc(O)cc3F)nc2)ccc1OC(F)(F)F)N1CCOCC1 (centres unmarked) [Example 109, N-[6-(2-fluoro-4-hydroxyphenyl)pyridin-3-yl]-3-{[2-(morpholin-4-yl)propanoyl]amino}-4-(trifluoromethoxy)benzamide]
18 | 44 | – | 0.288 | – | CC(C(=O)Nc1cc(C(=O)Nc2ccc(-c3cccc(F)c3)nc2)ccc1OC(F)(F)F)N1CCOCC1 (centres unmarked) [Example 182, N-[6-(3-fluorophenyl)pyridin-3-yl]-3-{[2-(morpholin-4-yl)propanoyl]amino}-4-(trifluoromethoxy)benzamide]
19 | ≥ 50 | 0.285 | – | – | COC(=O)c1ccc(C(=O)Nc2nnc(-c3ccccc3)s2)cc1NC(=O)CN1CCOCC1 [Example 106, methyl 2-[(morpholin-4-ylacetyl)amino]-4-[(5-phenyl-1,3,4-thiadiazol-2-yl)carbamoyl]benzoate]
20 | ≥ 50 | 3.8 | – | – | CN1CCN(CC(=O)Nc2cc(C(=O)Nc3nnc(-c4ccccc4)s3)ccc2C#N)CC1 [Example 174, 4-cyano-3-{[(4-methylpiperazin-1-yl)acetyl]amino}-N-(5-phenyl-1,3,4-thiadiazol-2-yl)benzamide]
21 | ≥ 50 | 0.222 | – | – | CC(C(=O)Nc1cc(C(=O)Nc2ccc(-c3ccc(O)cc3)nc2)ccc1OC(F)(F)F)N1CCOCC1 (centres unmarked) [Example 195, N-[6-(4-hydroxyphenyl)pyridin-3-yl]-3-{[2-(morpholin-4-yl)propanoyl]amino}-4-(trifluoromethoxy)benzamide]
22 | 40.5 | 0.635 | – | – | CC(C(=O)Nc1cc(C(=O)Nc2nnc(-c3ccccc3)s2)ccc1OC(F)(F)F)N1CCN(C2CC2)CC1 (centres unmarked) [Example 234, 3-{[2-(4-cyclopropylpiperazin-1-yl)propanoyl]amino}-N-(5-phenyl-1,3,4-thiadiazol-2-yl)-4-(trifluoromethoxy)benzamide]
23 | 7.15 | 0.118 | – | – | CC(C(=O)Nc1cc(C(=O)Nc2ccc(-c3ccccc3F)nc2)ccc1C(C)(C)C)N1CCOCC1 (centres unmarked) [Example 142, 4-tert-butyl-N-[6-(2-fluorophenyl)pyridin-3-yl]-3-{[2-(morpholin-4-yl)propanoyl]amino}benzamide]
24 | 16 | 0.22 | – | – | CN(C)C1(C(=O)Nc2cc(C(=O)Nc3ccc(-c4cc(F)cc(F)c4)nc3)ccc2OC(F)(F)F)CC1 [Example 251, N-[6-(3,5-difluorophenyl)pyridin-3-yl]-3-({[1-(dimethylamino)cyclopropyl]carbonyl}amino)-4-(trifluoromethoxy)benzamide]
25 | 11 | 0.196 | – | – | O=C(CN1C[C@@H]2C[C@H]1CO2)Nc1cc(NC(=O)c2ccc(-c3cc(F)cc(F)c3)nc2)ccc1OC(F)(F)F [Example 184, 6-(3,5-difluorophenyl)-N-[3-{[(1S,4S)-2-oxa-5-azabicyclo[2.2.1]hept-5-ylacetyl]amino}-4-(trifluoromethoxy)phenyl] nicotinamide]
26 | 21 | 0.752 | – | – | Cc1ccc(C(=O)Nc2nnc(-c3ccccc3)s2)cc1NC(=O)C1(N2CCOCC2)CC1 [Example 103, 4-methyl-3-({[1-(morpholin-4-yl)cyclopropyl]carbonyl}amino)-N-(5-phenyl-1,3,4-thiadiazol-2-yl)benzamide]
27 | 6.3 | 0.375 | – | – | O=C(CN1C[C@@H]2C[C@H]1CO2)Nc1cc(C(=O)Nc2ccc(-c3cc(F)cc(F)c3)nc2)ccc1OC(F)(F)F [Example 214, N-[6-(3,5-difluorophenyl)pyridin-3-yl]-3-{[(1S,4S)-2-oxa-5-azabicyclo[2.2.1]hept-5-ylacetyl]amino}-4-(trifluoromethoxy)benzamide]
28 | 42 | 0.45 | – | – | CC(C(=O)Nc1cc(C(=O)Nc2ccc(-c3ccc(O)c(F)c3)nc2)ccc1OC(F)(F)F)N1CCOCC1 (centres unmarked) [Example 110, N-[6-(3-fluoro-4-hydroxyphenyl)pyridin-3-yl]-3-{[2-(morpholin-4-yl)propanoyl]amino}-4-(trifluoromethoxy)benzamide]
